Results published in patent US20220054494A1, “METHODS FOR TREATING BLADDER AND URETHRA DYSFUNCTION AND DISEASE” (University of Pittsburgh - Of the Commonwealth System of …, priority 2019, published 2022).
“Also recorded” adds a separate entry of the source.

How the values were obtained:
parkin = assay: Western immunoblotting, parkin; format: in vivo, rat; conditions: aged rats; oral 8-AG 5 mg/kg/day, 6 weeks
Experimental: Western immunoblotting: One half of each bladder preparation was homogenized using Lysing Matrix D in a FastPrep 24 instrument (MP Biomedicals, Solon, Ohio) in HBSS (5 mM KCl, 0.3 mM KH2PO4, 138 mM NaCl, 4 mM NaHO3, 0.3 mM Na2HCO3, 0.3 mM Na2HPO4, 5.6 mM glucose and 10 mM Hepes, pH 7.4) containing complete protease inhibitor cocktail (1 tablet/10 ml, ROCHE®, Indianapolis, Ind.)) and phosphatase inhibitor cocktail (SIGMA®, 1:100). After centrifugation (13000 rpm; 15 min at 4° C.), the membrane protein fraction was prepared by suspending the membrane pellets in lysis buffer containing 0.3 M NaCl, 50 mM Tris-HCl (pH 7.6) and 0.5% Triton X-100 and the same concentration of protease inhibitors as above. The suspensions were incubated on ice and centrifuged (13000 rpm; 15 min at 4° C.). The protein concentrations of the combined supernatants were determined using the PIERCE® BCA protein assay (THERMO SCIENTIFIC®, Rockford, Ill.). […] As a loading control, total protein per sample was determined using Bio-Rad® Stain Free SDS-PAGE gel technology. UV-activated protein fluorescence was imaged on a CHEMIDOC® MP (BIO-RAD®). […] The volume (intensity) of each protein species was determined and normalized to total protein using Image Lab software (BIO-RAD®).

bladder vasculature = assay: Ribbon-scanning confocal microscopy of bladder vasculature perfused with fluorescent beads; format: in vivo, rat; conditions: aged rats
Source text: Bladders that had been perfused transcardially with PBS and containing 20 nm yellow-green fluorescent beads (THERMO FISHER™, F8787) to highlight the vasculature were fixed then cleared rapidly by removing lipids and dissolving light-absorbing chromophores within the tissue. Clearing the tissue increased the maximum depth of confocal imaging to many millimeters. At this stage, tissue was directly imaged for the presence of genetically expressed reporter proteins or underwent staining using immunohistochemistry (IHC) or molecular dyes. Using this method, images were acquired through bladders (and other tissues) that are 5000 micrometers thick. Volumetric data are acquired using the Caliber ID RS-G4 ribbon scanning confocal microscope, which acquired large-area images 20-40 times faster than other commercially available systems with a high nA (1.0) long working distance (8 mm) low magnification (20×) by NIKON™ Inc (Tokyo, Japan). Quantitative changes in vascular structures were compared with the volume and surface area of each bladder and of the various tissue subtypes using these methods (UT; suburothelium; mesenchyme). These methods afforded the advantage of interrogating whole tissues in a three-dimensional environment and in combination with IHC without the need to section.
Vascular Changes: Bladders that had been perfused transcardially with PBS buffer containing 20 nm yellow-green fluorescent beads (THERMO FISHER®, F8787) to highlight the vasculature were fixed then cleared by removing lipids and dissolving light-absorbing chromophores within the tissue. Volumetric data were acquired using a Caliber ID RS-G4 ribbon scanning confocal microscope (NIKON® Inc, Tokyo, Japan), which can acquire large-area images (uses a high nA (1.0) long working distance (8 mm) with low magnification (20×)). This affords the advantage of interrogating whole tissues in a three-dimensional environment without the need to section. Real-time blood perfusion (1 mm3 tissue) was accomplished using a BLF22D laser Doppler flowmeter (Transonic Systems, Inc) with a surface probe (TypeS-APLPHS) applied to the serosal surface of the bladder (apex and neck) wall using Doppler light shift from moving RBCs to analyze flow by the Bonner algorithm. This method gives robust, non-invasive microvascular flow signals in the bladder wall of anesthetized rats.

[1] = chronic 8-AG treatment (Examples 1-2)

For `Nc1nc2[nH]c(N)nc2c(=O)[nH]1` [8-AG, 8-Aminoguanine], the “parkin in bladder mucosa” value (parkin) was “reversed or restored to levels similar to the younger state; also recorded: restored changes similar to a younger state”, the “ischemic appearance of bladder tissue” value (bladder vasculature; [1]) was “no longer appeared ischemic” and the “tortuosity of bladder vessels” value (bladder vasculature; [1]) was “restored to a younger state; also recorded: reduced the number of tortuous vessels”. For the same molecule, the “ischemic appearance of bladder tissue” value (bladder vasculature; oral 8-AG 5 mg/kg/day, 6 weeks) was “no longer appeared ischemic” and the “vascular tortuosity / tortuous vessels in bladder” value (bladder vasculature; oral 8-AG 5 mg/kg/day, 6 weeks) was “reduced the number of tortuous vessels; also recorded: restored to a younger state”.
